Tests used:
chick embryos = test: Teratogenicity assay in chick embryos; settings: for Deaths (embryos / total examined) / Embryonic region affected: Axial skeleton (abnormal embryos / total examined) / Embryonic region affected: CNS (abnormal embryos / total examined) / Embryonic region affected: Heart (abnormal embryos / total examined) / Embryonic region affected: Somites (abnormal embryos / total examined) / Embryonic region affected: Vasculature (abnormal embryos / total examined): 48 h of exposition
Procedure: A teratogenicity assay was carried out as described by Jelinek et al., Func. Devel. Morph. 4:317-23 (1994). Fertile White Leghorn chicken eggs were obtained from A.L.P.E. S.A. (Puebla, Mexico) and were stored at 6° C. Sixty fertilized eggs were weighed, sterilized, and divided into […]. First group served as a non-treated control. The next three were exposed to the diastereomeric mixture of compound 7 (1, 10, and 100 μM). The last group received caffeine (10 mg/mL) and as positive control. Test solutions (1 mL) were added to the air sac under sterile conditions. Each solution was injected after drilling into the shell at the blunt end of the egg; after injection, the holes were immediately sealed with melted paraffin wax. The eggs were then transferred and maintained in a forced draft incubator at 37.5° C. with a relative humidity of 55% until the desired stage of development was reached.
To determine the concentration dependency of the diastereomeric mixture of compound 7, a histological analysis was carried out. Embryos in each group were fixed in buffered formal saline (pH 7.4), dehydrated, and embedded in paraffin blocks. Paraffin tissue sections of 6 μm were stained with acetocarmine for routine histological examination.

WRL-68 cells [1] = test: Utilization of glucose in hepatic cells, in vitro hyperglycemia model (glucose and glycogen levels); format: cell-based, human; settings: 24 hours; for reduction of extracellular glucose levels: conditioned media, 30 mM D-glucose medium
Procedure: WRL-68 cells were thawed and maintained in culture with Minimal Essential Medium (Gibco BRL) containing 4 mM Glutamine, 1% non essential aminoacids (Gibco BRL), 10% Fetal Calf Serum (FCS), and 100 μg/ml of ampicillin. WRL-68 cells were seeded at […] in complete media in 75 cm^2 cell culture flasks, cells were maintained for 24 hours at 37° C. under an atmosphere of 5% CO2. The medium was changed after 24 hr. Cells were passaged by trypsinization using a 0.025% trypsin solution containing 0.01% N,N,-di-ethyldithiocarbamic acid sodium salt (EDTA). In order to evaluate the effect of analog of carnitine on utilization of glucose levels a model of hyperglycemia in vitro (Nakajina et al., J. Biol. Chem. 275:20880-20886 (2000)) was developed. Two days after plating, the medium was changed to F-12K containing 7 mM D-glucose and 10% fetal bovine serum, and the culture was continued for 2 more days. The cells were then cultured in serum-free F-12K medium containing 30 mM D-glucose for 24 h. Cells were treated with the diastereomeric mixture of compound 7 at concentrations of 0.01, 0.1, 1,10, 100 μM, and 1 mM and 2 mM during 24 hours. Samples of conditioned media and cell lysates were kept to […]. Glucose and glycogen levels were measured by using a Glucose PAP-SL Kit (Tech, USA) and glycogen assay kit (Biovision Research Products, California, USA).

WRL-68 cells [2] = tested on: WRL-68 cells
Procedure: (§1) Two cell lines were used for this study: 293Q cells derived from normal epithelial cells of human fetal kidney (CRL-1573 ATCC) and WRL-68 cells derived from epithelial cells of human liver (CRL-48 ATCC). Cell lines were cultured in minimal essential medium (MEM, GIBCO BRL Inc., Grand Island, N.Y.), supplemented with nonessential amino acids (GIBCO BRL Inc., Grand Island, N.Y.), 10% fetal calf serum (GIBCO BRL Inc., Grand Island, N.Y.), 1-glutamine (2 mol/L), and antibiotics. Cells were plated in 100-mm culture dishes (10^6 cells/dish), and maintained at 37° C. under an atmosphere of 5% CO2 in humidified air. Subcultures were obtained by trypsinization (0.025% trypsin solution containing 0.01% N,N-diethyldithiocarbamic acid sodium salt, EDTA). For cytological investigation, 10^5 cells per mL of MEM medium were used. […] After incubation of the cells with the extract, they were collected for further cytological investigations.
(§2) Cells were incubated in 96-well plates. After 24 h, the medium was removed; the cells were washed twice with PBS and then incubated with analog. […] Cell viability was measured by a 3-(4,5-dimethylthiazol-2-yl)-2,5-diphenyltetrazolium bromide (MTT) assay (Wang et al., Journal Ocular. Pharm. Ther. 12: 35-43 (1996)). […] When the blue crystals were dissolved, the optical density was determined on a microplate reader at 450 nm. […]

Procedure for 293Q cells: as §1, §2

SMILES: Cn1c(=O)c2c(ncn2C)n(C)c1=O [Caffeine, caffeine, reference compound]
- Deaths (embryos / total examined) (chick embryos; positive control, 10 mg/mL): 2/10
- Embryonic region affected: Axial skeleton (abnormal embryos / total examined) (chick embryos; positive control, 10 mg/mL): 10/10
- Embryonic region affected: CNS (abnormal embryos / total examined) (chick embryos; positive control, 10 mg/mL): 8/10
- Embryonic region affected: Heart (abnormal embryos / total examined) (chick embryos; positive control, 10 mg/mL): 8/10
- Embryonic region affected: Somites (abnormal embryos / total examined) (chick embryos; positive control, 10 mg/mL): 8/10
- Embryonic region affected: Vasculature (abnormal embryos / total examined) (chick embryos; positive control, 10 mg/mL): 6/10

SMILES: CC(C)C[C@@H]([C@@H](O)CP(=O)(O)O)[N+](C)(C)C.[I-] [compound 7, (2R,3S)-(2-hydroxy-5-methyl-3-trimethylamonium-hexyl)-phosphonic acid; iodide]
- Deaths (embryos / total examined) (chick embryos; 1 μM): 0/10
- Embryonic region affected: Axial skeleton (abnormal embryos / total examined) (chick embryos; 1 μM): 0/10
- Embryonic region affected: CNS (abnormal embryos / total examined) (chick embryos; 1 μM): 0/10
- Embryonic region affected: Heart (abnormal embryos / total examined) (chick embryos; 1 μM): 0/10
- Embryonic region affected: Somites (abnormal embryos / total examined) (chick embryos; 1 μM): 0/10
- Embryonic region affected: Vasculature (abnormal embryos / total examined) (chick embryos; 1 μM): 0/10
- Deaths (embryos / total examined) (chick embryos; 100 μM): 0/10
- Embryonic region affected: Axial skeleton (abnormal embryos / total examined) (chick embryos; 100 μM): 0/10
- Embryonic region affected: CNS (abnormal embryos / total examined) (chick embryos; 100 μM): 0/10
- Embryonic region affected: Heart (abnormal embryos / total examined) (chick embryos; 100 μM): 0/10
- Embryonic region affected: Somites (abnormal embryos / total examined) (chick embryos; 100 μM): 0/10
- Embryonic region affected: Vasculature (abnormal embryos / total examined) (chick embryos; 100 μM): 0/10
- Deaths (embryos / total examined) (chick embryos; 1 mM): 0/10
- Embryonic region affected: Axial skeleton (abnormal embryos / total examined) (chick embryos; 1 mM): 0/10
- Embryonic region affected: CNS (abnormal embryos / total examined) (chick embryos; 1 mM): 0/10
- Embryonic region affected: Heart (abnormal embryos / total examined) (chick embryos; 1 mM): 0/10
- Embryonic region affected: Somites (abnormal embryos / total examined) (chick embryos; 1 mM): 0/10
- Embryonic region affected: Vasculature (abnormal embryos / total examined) (chick embryos; 1 mM): 0/10

SMILES: CC(C)CC(C(O)CP(=O)(O)O)[N+](C)(C)C.[I-] (single isomer, unassigned) [diastereomeric mixture of compound 7]
- alterations in embryos (histological analysis) (chick embryos; in vivo): No alterations
- effects on cell proliferation (MTT) (293Q cells): did not show citotoxicity or effects on cell proliferation
- reduction of extracellular glucose levels (WRL-68 cells [1]; 1 μM): 16%
- reduction of extracellular glucose levels (WRL-68 cells [1]; 10 μM): 18%
- reduction of extracellular glucose levels (WRL-68 cells [1]; 100 μM): 23%
- reduction of extracellular glucose levels (WRL-68 cells [1]; 1 mM): 30%
- cellular glycogen levels (WRL-68 cells [1]; 2 mM): increase
- reduction of extracellular glucose levels (WRL-68 cells [1]; 2 mM): 32%
- changes in cellular glucose (WRL-68 cells [1]; any concentration (0.01 μM to 2 mM)): No changes
- effects on cell proliferation (MTT) (WRL-68 cells [2]): did not show citotoxicity or effects on cell proliferation
